Assay results published in patent publication US12636371B2, “Chemically coupled transporter for low-hydrophobicity bioactive drugs into the central nervous system” (Skybio LLC, priority 2021, dated 2026).

What was measured:
D2 dopamine receptor = D2 dopamine receptor (Homo sapiens, UniProt P14416); experiment: D2 receptor agonist assay, cAMP Nomad biosensor, U2OS_cAMPNmd_FP650_D2 cells; assay type: cell-based; settings: 24 h, 10 serial 1:3 dilutions from 30 μM, triplicate; read-out: EC50, D2 receptor activation
Method: HEK_cAMPNmd_FP650_D1 and U2OS_cAMPNmd_FP650_D2 cells were seeded at a density of 30.000 and 20.000 cells/well, respectively, in 96-well plates. Cells were maintained in DMEM or DMEM-F12 medium supplemented with 10% FBS during 24 h at 37° C. in a humidified 5% CO2 atmosphere.
Cells were then incubated for 24 h.
To detect Nomad biosensor activation, the assay medium was removed and replaced by […] of DPBS with calcium and magnesium. […] In U2OS_cAMPNmd_FP650_D2 cells, images were acquired using the CellInsight CX7 HCS Platform, and the number of fluorescent vesicles per cell was quantified with the HCS Studio Cell Analysis Software.
The effect of the compounds in the regulation of D1 or D2 receptors' activation was analyzed measuring the CAMP signaling using the Nomad biosensor-based assay.
This same experiment was carried out in the U2OS_cAMPNmd_FP650_D2 cell line (FIG. 10). The effect of the compounds was analyzed quantifying the number of fluorescent vesicles in the cytoplasm of the cells using the HCS Studio Cell Analysis Software.

SH-SY5Y cells = experiment: CellROX assay of intracellular reactive oxygen species induced by ASf; assay type: cell-based; settings: 24 h
Method: In order to characterize the antioxidant properties of D9, its protective action on the AS-induced production of reactive oxygen species (ROS) in a cellular model was assessed. For this, SH-SY5Y cells were treated with fibrils of AS (ASf) (AS incubated 120 h at 37° C. and 600 rpm), and the reactive oxygen species produced were examined using the CellROX® Orange Reagent (Invitrogen), which undergoes oxidation by ROS to form a stable fluorescent compound.
In addition, cells were also treated with doxycycline 10 μM+7 μM ASf (ASf+Doxy) as a positive control, and 10 μM doxycycline alone (Doxy). All conditions were incubated 24 h at 37° C. and 5% CO2. […] Fluorescent images of randomly chosen fields were acquired with identical acquisition parameters using a Zeiss Axio Vert.A1 inverted fluorescence microscope.

Bv2 cells = experiment: MTT cytotoxicity assay in microglial Bv2 cell line; assay type: cell-based, murine; settings: 10 and 20 μM, 24 h
Method: The ability of D9 to induce cytotoxicity was also studied using the MTT assay on Bv2 cells, a microglial cell line derived from the C57/BL6 murine model. For this, Bv2 cells were incubated in the presence and in the absence of different Pegasus concentrations at 37° C. Bv2 cells retain the morphology and functional characteristics of microglia and are therefore a widespread microglial model. These cells are immortalized by v-raf/v-myc carrying J2 retrovirus, and express nuclear v-myc and the cytoplasmic v-raf oncogene products as well as the env gp70 antigen at the surface level.
Bv2 cells were seeded in Poly-L-Lysine-treated 96-well plates at 15,000 cells/well and in 100 μl of DMEM supplemented with 10% Fetal Bovine Serum (FBS) and 1% Antibiotics/Antimycotics (PSA) and incubated for 24 h at 37° C. and 5% CO2. Afterwards, cells were treated with a 25 μl aliquot of a 50 µM and 100 μM Pegasus solution (final concentration in well 10 μM and 20 μM) and incubated for 24 h. To determine cell viability, the colorimetric MTT metabolic activity assay was used as previously described by Mosmann. All experiments were performed in sextuplicate, and the relative cell viability (%) was expressed as a percentage relative to the untreated control condition.

E. coli DH5α = experiment: Antibiotic activity by disc diffusion assay (MIC); assay type: cell-based; settings: disc diffusion, two-fold serial dilutions from 2 mg/ml, LB solid medium, overnight 37° C.
Method: In order to examine the antibiotic activity of the compounds synthesized in Example 1, an assay was performed using E. coli DH5α (Gram(−)), as a sensitive, indicator strain.
The antibacterial activities of test compounds were evaluated using the disc diffusion method (Kavanagh, F. Dilution methods of antibiotic assays in Analytical Microbiology. 1963; Pomares M F, Vincent P A, Farías R N, Salomón R A. Protective action of ppGpp in microcin J25-sensitive strains. J Bacteriol. 2008-190:4328-34). Briefly, filter-paper discs impregnated with 10 μl of two-fold serial dilutions of the test compounds, and were placed onto LB solid medium Petri dishes. Then, aliquots (50 μl) of an E. coli DH5α culture in stationary phase were mixed with 3 ml of top agar (0.7% agar) and overlaid onto the plates. After overnight incubation at 37° C., the plates were examined for different degrees of inhibition. Inhibition degrees produced by the test compound are expressed as Minimum Inhibitory Concentrations (MICs), defined as the lowest concentration of a compound that inhibit visible growth of bacteria. Each test was performed in duplicate vs. the reference compound Doxycycline.

[1] = test system: IL-1β release in Bv2 cells; experiment: IL-1β release in LPS-stimulated microglial cells (ELISA); assay type: cell-based, murine
Method: To evaluate the effect of Pegasus on LPS-activated microglia, Bv2 cells were pretreated with Pegasus (D9) (200 μM). After 4 h of treatment, cells were stimulated with LPS (10 μg/mL, final concentration) during 24 h. Doxycycline (Doxy) (200 μM) and Dexamethasone (Dexa) (200 μM) were used as a positive control of anti-inflammatory effects. IL-1β cytokine concentration was measured by ELISA assays (Mouse IL-1 beta ELISA Kit, Cat #BMS6002, Invitrogen), according to instructions provided by the manufacturer.

[2] = test system: HEK293/Cytochrome C-tGFP cell line; experiment: Apoptosis assay, Cytochrome C-tGFP localization by confocal microscopy; assay type: cell-based; settings: 200 μM, 24 h
Description: Identification of genes linked to familiar forms of PD have uncovered many molecular pathways involved in neurodegeneration. One of such genes is PTEN-induced kinase 1 (PINK1), a mitochondrial serine/threonine-protein kinase that protects cells from stress-induced mitochondrial dysfunction. […] In fact, PINK1 is the second most frequent causative gene in early-onset PD, where mutations in this gene cause an autosomal recessive form of the disease. Frequent missense or truncating mutations of PINK1 are implicated in the pathogenesis of PARK6 (familial type 6 of PD). […] Therefore, the release of Cytochrome C from damaged mitochondria is considered a central event in apoptotic signaling. To characterize the ability of Pegasus (D9) to induce mitochondrial damage and apoptosis, as assayed by the release of Cytochrome C from mitochondria, a transgenic Cytochrome C-tGFP HEK293 cell line was used (INNOPROT #P30801) (Goldstein J C, Muñoz-Pinedo C, Ricci J E, et al. Cytochrome C is released in a single step during apoptosis. Cell Death Differ 2005; 12(5): 453-62).
The effect of Pegasus on the localization and distribution of mitochondrial Cytochrome C-tGFP was visualized by confocal microscopy after incubation with 200 μM of D9 for 24 hs in the HEK293/Cytochrome C-tGFP cell line (INNOPROT #P30801). Images were acquired in a ZEISS LSM800 Confocal Microscope.

D2 dopamine receptor, sequence (P14416 whole entry): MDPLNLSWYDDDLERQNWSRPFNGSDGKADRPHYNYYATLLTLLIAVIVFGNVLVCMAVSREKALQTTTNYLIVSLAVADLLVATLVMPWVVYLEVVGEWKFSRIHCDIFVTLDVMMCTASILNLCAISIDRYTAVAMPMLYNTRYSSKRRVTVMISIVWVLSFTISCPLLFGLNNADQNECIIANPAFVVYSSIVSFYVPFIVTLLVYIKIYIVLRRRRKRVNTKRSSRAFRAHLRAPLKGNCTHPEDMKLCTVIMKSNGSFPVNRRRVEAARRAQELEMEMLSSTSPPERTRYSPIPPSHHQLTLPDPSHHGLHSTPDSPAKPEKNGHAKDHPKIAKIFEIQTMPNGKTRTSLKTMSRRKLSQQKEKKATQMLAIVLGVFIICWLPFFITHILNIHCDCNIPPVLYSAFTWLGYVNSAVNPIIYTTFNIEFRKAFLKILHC

EC50 (D2 dopamine receptor): 11.3 µM
SMILES: C[C@H]1c2ccc(NC(=O)CCC(=O)NCCc3ccc(O)c(O)c3)c(O)c2C(=O)C2=C(O)[C@]3(O)C(=O)C(C(N)=O)=C(O)CC3[C@@H](O)C21 (some centres unmarked) [Pegasus]
Intracellular ROS induced by ASf in presence of compound (SH-SY5Y cells; 7 μM ASf + 10 μM compound): no increase in ROS production was observed
Intracellular ROS induced by compound alone (SH-SY5Y cells; human, 10 μM): neither the presence of D9 nor doxycycline induced intracellular ROS
Cytotoxicity (relative cell viability, MTT) (Bv2 cells): did not induce cell toxicity
MIC (E. coli DH5α): no antibiotic activity at the concentrations tested
IL-1β production after LPS stimulation ([1]; 200 μM pretreatment 4 h, then LPS 10 μg/mL 24 h): reduced production of IL-1β
IL-1β release, compound alone ([1]; compound alone, no LPS): did not lead to a significantly increase of IL-1β release
Localization and distribution of Cytochrome C-tGFP (marker of apoptosis) [2]: no differences in localization and distribution of Cytochrome C-tGFP
